Reference: ChEMBL document CHEMBL1201862, “PubChem BioAssay data set” (2004)
Active and inactive are the calls of the source.

Experiments:
[1] = molecular target: T1, Small ubiquitin-related modifier 1 (Homo sapiens, UniProt P63165); test: inhibitors of SUMO1 peptide binding, dose response, biochemical, fluorescence polarization, uHTS hits (AID 624382); type: functional; details: read-out: IC50_Mean
[2] = molecular target: Photoreceptor-specific nuclear receptor (Homo sapiens, UniProt Q9Y5X4); type: functional, cell-based;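 note: CHO-S cells with Gal4-NCOR and VP16-NR2E3 two-hybrid luciferase reporter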
Vero = Vero cell cytotoxicity, cytotoxicity control for flavivirus capping enzyme inhibitors (AID 588742); type: functional; details: Chlorocebus sabaeus
[3] = molecular target: T1, Small ubiquitin-related modifier 1; test: inhibitors of SUMO1 partner interactions, dose response, biochemical, FRET (AID 624383); type: functional; details: read-out: IC50_Mean
Genome polyprotein = Genome polyprotein (dengue virus type 2, UniProt P29990); test: Dengue-2 NS5 methyltransferase inhibitors, primary screen, biochemical, confirmation dose response (AID 588689); type: functional
[4] = StAR promoter reporter inhibition counter-screen, dose response, counter-screen for LRH-1 inverse agonist project, cell-based, luminescence, luciferase reporter (AID 651969); type: functional
[5] = molecular target: Nuclear receptor subfamily 5 group A member 2 (Homo sapiens, UniProt O00482); type: functional, cell-based;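 note: HEK293T cells transfected with LRH-1 and a StAR promoter luciferase reporter; potency for inhibitors that lower LRH-1 driven reporter light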
Steroidogenic factor 1 = Steroidogenic factor 1 (Homo sapiens, UniProt Q13285); test: Counterscreen for inverse agonists of the liver receptor homolog-1 (LRH-1; NR5A2): Luminescence-based cell-based high throughput dose response assay to identify inverse agonists of the Steroidogenic Factor 1 Nuclear Receptor (SF1; NR5A1).; type: functional
[6] = CRF-BP/CRF-R2 complex antagonists, dose response, cell-based, uHTS hits, 384-well (AID 651639); type: functional, Homo sapiens; details: read-out: IC50_Mean
[7] = molecular target: T2, Corticotropin-releasing factor receptor 2/Corticotropin-releasing factor-binding protein (Homo sapiens, UniProt P24387+Q13324); test: Dose Response confirmation of uHTS hits for small molecule antagonists of the CRF-binding protein and CRF-R2 receptor complex.; type: functional; details: read-out: IC50_Mean
T2 sequence (Q13324 whole entry): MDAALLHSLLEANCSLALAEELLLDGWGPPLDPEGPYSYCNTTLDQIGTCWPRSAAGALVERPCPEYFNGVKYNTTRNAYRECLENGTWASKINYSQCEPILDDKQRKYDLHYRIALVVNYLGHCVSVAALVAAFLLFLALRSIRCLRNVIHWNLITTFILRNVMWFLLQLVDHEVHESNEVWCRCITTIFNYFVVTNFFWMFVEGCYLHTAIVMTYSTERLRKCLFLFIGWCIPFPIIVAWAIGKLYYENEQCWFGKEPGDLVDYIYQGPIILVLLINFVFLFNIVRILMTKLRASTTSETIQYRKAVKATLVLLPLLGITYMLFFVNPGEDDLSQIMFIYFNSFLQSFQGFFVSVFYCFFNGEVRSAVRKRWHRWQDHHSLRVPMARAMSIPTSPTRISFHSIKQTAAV
T2 sequence (P24387 whole entry): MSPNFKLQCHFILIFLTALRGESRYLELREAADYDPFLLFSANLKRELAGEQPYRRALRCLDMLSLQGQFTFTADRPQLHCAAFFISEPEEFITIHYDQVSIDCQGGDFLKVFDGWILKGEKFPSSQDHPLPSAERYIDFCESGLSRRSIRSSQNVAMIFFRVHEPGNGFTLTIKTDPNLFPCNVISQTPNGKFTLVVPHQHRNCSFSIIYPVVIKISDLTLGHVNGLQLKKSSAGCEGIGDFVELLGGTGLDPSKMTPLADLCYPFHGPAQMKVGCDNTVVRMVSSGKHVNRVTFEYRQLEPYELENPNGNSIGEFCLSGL

HEK293 [8] = test: NOD1 signaling inhibitors, primary screen, cell-based, luminescence, uHTS (AID 1578); type: functional; details: Homo sapiens
[9] = molecular target: T2, Corticotropin-releasing factor receptor 2/Corticotropin-releasing factor-binding protein; test: activators of CRF receptor 2 with binding protein – uHTS hits, confirmation (AID 602473); type: functional; details: read-out: EC50_Mean
HEK293 [10] = test: cells; type: functional, cell-based; details: Homo sapiens
HEK293 [11] = test: cells; type: functional, cell-based; details: Homo sapiens; remark: listed apart in the source
HEK293 [12] = test: NOD2 signaling inhibitors in MDP-stimulated cells, cell-based, uHTS, luminescence (AID 2001); type: functional; details: Homo sapiens
[13] = HeLa cell cytotoxicity, dose response, cytotoxicity control for MgcRacGAP inhibitor project (AID 624300); type: functional
[14] = molecular target: T3, Rac GTPase-activating protein 1 (Homo sapiens, UniProt Q9H0H5); test: MgcRacGAP GTPase-activating activity inhibitors, confirmation, biochemical, ADP Hunter fluorescence, primary and confirmatory (AID 624330); type: functional
T3 sequence (Q9H0H5 whole entry): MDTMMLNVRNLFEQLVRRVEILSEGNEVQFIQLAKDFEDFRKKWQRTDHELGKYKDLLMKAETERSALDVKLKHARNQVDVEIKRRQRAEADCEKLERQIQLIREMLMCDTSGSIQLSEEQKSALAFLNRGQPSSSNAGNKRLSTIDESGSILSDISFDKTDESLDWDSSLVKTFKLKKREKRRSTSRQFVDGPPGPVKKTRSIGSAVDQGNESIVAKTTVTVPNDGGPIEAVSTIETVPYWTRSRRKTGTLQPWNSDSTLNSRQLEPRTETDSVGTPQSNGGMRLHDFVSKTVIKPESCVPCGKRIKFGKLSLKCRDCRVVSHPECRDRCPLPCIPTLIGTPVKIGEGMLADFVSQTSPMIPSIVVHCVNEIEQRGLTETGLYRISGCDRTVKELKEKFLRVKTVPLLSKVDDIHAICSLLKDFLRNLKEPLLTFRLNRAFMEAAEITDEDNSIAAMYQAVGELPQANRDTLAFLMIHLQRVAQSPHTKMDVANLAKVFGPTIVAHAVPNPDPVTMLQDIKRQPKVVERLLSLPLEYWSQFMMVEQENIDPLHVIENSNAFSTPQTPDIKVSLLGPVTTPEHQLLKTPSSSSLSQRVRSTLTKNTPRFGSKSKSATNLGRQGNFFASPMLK

[15] = molecular target: T4, Sentrin-specific protease 1 (Homo sapiens, UniProt Q9P0U3); test: Dose response confirmation of small molecule inhibitors of the catalytic domain of the SUMO protease, SENP1 in a FRET assay.; type: functional; details: read-out: IC50_Mean
T4 sequence (Q9P0U3 whole entry): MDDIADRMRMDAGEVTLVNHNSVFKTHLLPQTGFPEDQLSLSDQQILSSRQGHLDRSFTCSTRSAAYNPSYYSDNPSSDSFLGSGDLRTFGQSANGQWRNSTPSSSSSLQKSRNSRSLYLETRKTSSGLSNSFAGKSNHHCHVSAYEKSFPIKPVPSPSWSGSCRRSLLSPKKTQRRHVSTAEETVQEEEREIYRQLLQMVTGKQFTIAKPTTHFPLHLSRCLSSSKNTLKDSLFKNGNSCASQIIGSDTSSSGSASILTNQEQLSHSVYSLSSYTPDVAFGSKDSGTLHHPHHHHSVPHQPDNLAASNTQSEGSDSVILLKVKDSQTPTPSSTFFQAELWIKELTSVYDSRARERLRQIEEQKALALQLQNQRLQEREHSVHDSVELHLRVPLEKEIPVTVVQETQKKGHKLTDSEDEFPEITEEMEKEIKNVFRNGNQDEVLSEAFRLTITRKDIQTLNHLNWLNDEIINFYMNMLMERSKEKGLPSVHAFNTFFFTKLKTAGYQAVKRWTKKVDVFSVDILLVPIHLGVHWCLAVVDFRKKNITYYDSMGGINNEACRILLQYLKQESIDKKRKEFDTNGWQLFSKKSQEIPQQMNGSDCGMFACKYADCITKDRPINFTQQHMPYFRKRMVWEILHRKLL

Leucine aminopeptidase = molecular target: T5, Leucine aminopeptidase (Plasmodium falciparum 3D7, UniProt Q8IL11); test: P. falciparum M17LAP inhibitors, primary screen, biochemical, fluorogenic H-Leu-NHMec substrate, 1536-well (AID 1619); type: functional
T5 sequence (Q8IL11 whole entry): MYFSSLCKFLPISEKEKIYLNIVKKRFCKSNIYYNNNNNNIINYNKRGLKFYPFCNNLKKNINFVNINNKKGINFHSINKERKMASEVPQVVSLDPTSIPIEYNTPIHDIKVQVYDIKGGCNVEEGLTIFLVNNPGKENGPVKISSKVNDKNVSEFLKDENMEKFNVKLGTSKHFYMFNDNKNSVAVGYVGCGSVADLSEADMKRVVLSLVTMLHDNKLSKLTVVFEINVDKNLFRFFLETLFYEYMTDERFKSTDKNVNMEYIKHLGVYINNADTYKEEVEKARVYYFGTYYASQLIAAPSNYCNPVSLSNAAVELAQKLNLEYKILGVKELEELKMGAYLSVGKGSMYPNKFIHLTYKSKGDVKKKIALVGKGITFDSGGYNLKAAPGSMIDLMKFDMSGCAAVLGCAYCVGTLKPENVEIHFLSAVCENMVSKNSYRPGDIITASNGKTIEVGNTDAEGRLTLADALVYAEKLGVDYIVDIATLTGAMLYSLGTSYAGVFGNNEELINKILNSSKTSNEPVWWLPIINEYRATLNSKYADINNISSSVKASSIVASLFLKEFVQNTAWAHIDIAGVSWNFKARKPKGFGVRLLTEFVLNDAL

[16] = molecular target: T4, Sentrin-specific protease 1; test: potency of human SENP1 inhibitors, dose response, biochemical, kinetic FRET (AID 651697); type: functional; details: read-out: IC50_Mean

T1 sequence (P63165 whole entry, the tested form may be a part): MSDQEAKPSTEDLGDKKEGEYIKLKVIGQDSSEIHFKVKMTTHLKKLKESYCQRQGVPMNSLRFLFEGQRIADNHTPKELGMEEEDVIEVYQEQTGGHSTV
Steroidogenic factor 1, sequence (Q13285 whole entry): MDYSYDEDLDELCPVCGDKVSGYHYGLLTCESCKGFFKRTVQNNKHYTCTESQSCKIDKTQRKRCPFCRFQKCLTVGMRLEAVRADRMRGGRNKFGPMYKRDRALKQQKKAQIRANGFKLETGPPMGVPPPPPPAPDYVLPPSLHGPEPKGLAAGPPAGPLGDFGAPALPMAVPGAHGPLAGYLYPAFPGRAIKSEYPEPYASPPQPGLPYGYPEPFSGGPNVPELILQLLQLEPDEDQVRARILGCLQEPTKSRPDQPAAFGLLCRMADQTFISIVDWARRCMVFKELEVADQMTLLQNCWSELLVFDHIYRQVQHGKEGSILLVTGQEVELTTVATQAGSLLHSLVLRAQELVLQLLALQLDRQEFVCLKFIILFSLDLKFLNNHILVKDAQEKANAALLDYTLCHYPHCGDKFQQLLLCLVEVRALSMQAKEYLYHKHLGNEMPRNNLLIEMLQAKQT
Nuclear receptor subfamily 5 group A member 2, sequence (O00482 whole entry): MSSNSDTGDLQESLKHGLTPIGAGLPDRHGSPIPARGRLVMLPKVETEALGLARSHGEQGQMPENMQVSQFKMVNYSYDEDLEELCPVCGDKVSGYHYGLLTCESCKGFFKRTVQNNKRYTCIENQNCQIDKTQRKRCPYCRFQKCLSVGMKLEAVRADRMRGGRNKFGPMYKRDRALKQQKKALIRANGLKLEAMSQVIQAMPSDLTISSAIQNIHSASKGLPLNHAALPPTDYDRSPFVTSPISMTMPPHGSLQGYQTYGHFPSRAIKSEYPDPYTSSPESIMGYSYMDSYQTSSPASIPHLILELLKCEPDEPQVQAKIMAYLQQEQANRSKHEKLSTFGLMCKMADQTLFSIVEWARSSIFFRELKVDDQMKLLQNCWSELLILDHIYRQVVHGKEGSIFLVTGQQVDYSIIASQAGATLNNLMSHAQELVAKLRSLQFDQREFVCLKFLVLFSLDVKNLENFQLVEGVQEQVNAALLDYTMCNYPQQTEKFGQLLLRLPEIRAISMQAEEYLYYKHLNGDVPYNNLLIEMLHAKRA
Genome polyprotein, sequence (P29990 2492-3391 limits assumed): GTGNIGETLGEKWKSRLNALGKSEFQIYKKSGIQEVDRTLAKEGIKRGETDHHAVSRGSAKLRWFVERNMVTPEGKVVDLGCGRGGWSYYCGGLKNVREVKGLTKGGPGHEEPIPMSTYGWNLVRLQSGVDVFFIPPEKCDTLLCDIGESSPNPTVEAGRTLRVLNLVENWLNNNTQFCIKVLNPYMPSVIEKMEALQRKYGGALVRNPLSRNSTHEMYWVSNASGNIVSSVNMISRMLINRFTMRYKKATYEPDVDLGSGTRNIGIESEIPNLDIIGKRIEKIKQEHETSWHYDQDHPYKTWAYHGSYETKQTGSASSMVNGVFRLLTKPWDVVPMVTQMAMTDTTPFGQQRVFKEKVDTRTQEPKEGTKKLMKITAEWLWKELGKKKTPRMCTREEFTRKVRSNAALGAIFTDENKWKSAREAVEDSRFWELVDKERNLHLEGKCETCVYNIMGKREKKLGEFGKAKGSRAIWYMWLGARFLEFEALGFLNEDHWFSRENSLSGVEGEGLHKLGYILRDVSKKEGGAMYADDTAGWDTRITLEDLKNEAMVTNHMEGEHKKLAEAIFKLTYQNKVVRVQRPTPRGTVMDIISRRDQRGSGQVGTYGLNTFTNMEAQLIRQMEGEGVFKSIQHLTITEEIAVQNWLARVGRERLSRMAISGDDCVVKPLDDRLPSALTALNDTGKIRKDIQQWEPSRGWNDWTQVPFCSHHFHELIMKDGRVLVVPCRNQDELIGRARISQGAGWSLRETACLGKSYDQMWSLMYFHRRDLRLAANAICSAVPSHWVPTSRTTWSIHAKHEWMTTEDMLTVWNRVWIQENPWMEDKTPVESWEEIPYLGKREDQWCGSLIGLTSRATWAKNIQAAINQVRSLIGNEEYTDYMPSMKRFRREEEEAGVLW
Photoreceptor-specific nuclear receptor, sequence (Q9Y5X4 whole entry, the tested form may be a part): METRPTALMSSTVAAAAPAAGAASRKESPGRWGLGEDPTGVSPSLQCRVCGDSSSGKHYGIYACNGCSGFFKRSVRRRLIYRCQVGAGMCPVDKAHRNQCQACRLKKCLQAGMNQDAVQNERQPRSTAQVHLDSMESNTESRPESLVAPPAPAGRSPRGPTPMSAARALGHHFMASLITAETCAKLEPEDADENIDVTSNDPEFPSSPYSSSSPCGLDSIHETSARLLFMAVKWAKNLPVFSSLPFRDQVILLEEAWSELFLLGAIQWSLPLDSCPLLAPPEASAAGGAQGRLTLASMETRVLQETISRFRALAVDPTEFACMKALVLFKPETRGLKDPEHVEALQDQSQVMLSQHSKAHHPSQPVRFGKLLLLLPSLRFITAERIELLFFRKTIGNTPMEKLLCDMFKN

With `Cc1ccc(S(=O)(=O)N2[C@@H](c3ccc(Br)cc3)C(C(=O)O)=CC[C@H]2c2ccc(Cl)c(Cl)c2)cc1` as the compound, how does the IC50 [1] read?
The IC50 was > 66.6 µM (inactive).

What about the IC50 [2] of the same compound?
The IC50 was 5.2 µM (active).

And the CC50 (Vero)?
Its CC50 is > 40 µM (active).

What about the IC50 [3] of the same compound?
The IC50 was 6.25 µM (active).

What about the IC50 (Genome polyprotein) of the same compound?
Its IC50 is 42.9 µM (active).

What does the source list for `COC(=O)c1ccc(NC(=O)CSc2nn3c(=O)c(C)nnc3s2)cc1`?
IC50 [4]: 35.9 µM (inactive); IC50 [5]: 35.9 µM (inactive); IC50 (Steroidogenic factor 1): 35.9 µM (inactive)

With `C/C(=N\NC(=O)c1cc(Cl)ccc1O)c1ccc(Br)s1` as the compound, how does the IC50 [6] read?
The IC50 was > 20 µM (inactive).

What about the IC50 [7] of the same compound?
The IC50 was < 0.368 µM (active).

What about the EC50 (HEK293 [8]) of the same compound?
The EC50 was 1.93 µM (active).

And the EC50 [9]?
The EC50 was > 53 µM (inactive).

And the IC50 (HEK293 [10])?
Its IC50 is > 20 µM (inactive).

And the IC50 (HEK293 [11])?
The IC50 was 5.47 µM (active).

What about the IC50 (HEK293 [12]) of the same compound?
Its IC50 is 6.21 µM (inactive).

For `CCOc1cc(/C=C2\C(=O)N(CCc3ccc(OC)c(OC)c3)C(C)=C2C(=O)OC)ccc1O`, which CC50 [13] is on record?
Its CC50 is 100 µM (active).

What about the IC50 [14] of the same compound?
Its IC50 is 118 µM (active).

For `O=C(NCC1CCCO1)c1sc(=S)n2c1[nH]c(=O)c1ccc(C(=O)N3CCCCC3)cc12` (stereo not drawn), which IC50 [15] is on record?
Its IC50 is 21.1 µM (inactive).

And the IC50 (Leucine aminopeptidase)?
Its IC50 is 65.4 µM (active).

And the IC50 [16]?
Its IC50 is 51.1 µM (inactive).

Which results are given for `Cc1ccc(S(=O)(=O)N2CCOCC2)cc1C(=O)OCC(=O)Nc1ccc2[nH]c(O)nc2c1`?
IC50 [1]: > 66.6 µM (inactive); IC50 [3]: 11.4 µM (active)

Which IC50 [4] does the source give for `COc1cccc(C(=O)COc2cccc(NC(=O)c3cccc([N+](=O)[O-])c3)c2)c1` here?
The IC50 was 10.9 µM (inactive).

And the IC50 [5]?
Its IC50 is 0.443 µM (active).

What about the IC50 (Steroidogenic factor 1) of the same compound?
Its IC50 is 0.443 µM (active).

With `COc1cccc(C2(c3cccc(OC)c3)CC2C(=O)Nc2ccccc2Cl)c1` (stereo not drawn) as the compound, how does the IC50 [6] read?
Its IC50 is > 20 µM (inactive).

What about the IC50 [7] of the same compound?
The IC50 was 3.83 µM (active).

What about the EC50 [9] of the same compound?
The EC50 was > 53 µM (inactive).

Which IC50 [4] does the source give for `CCCc1nnc(SCC(=O)Nc2ccc(OC)cc2)o1` here?
The IC50 was 35.9 µM (inactive).

What about the IC50 [5] of the same compound?
Its IC50 is 6.68 µM (active).

What about the IC50 (Steroidogenic factor 1) of the same compound?
The IC50 was 15.5 µM (inactive).

For `Cc1ccccc1Cn1nc(C)c(NC(=O)c2cc(-c3cccs3)on2)c1C`, which IC50 [6] is on record?
Its IC50 is > 20 µM (inactive).

What about the IC50 [7] of the same compound?
Its IC50 is 39.1 µM (active).

And the EC50 [9]?
Its EC50 is > 53 µM (inactive).

Which IC50 [15] does the source give for `COc1cc(/C=C2\SC(=S)N(CC(=O)O)C2=O)ccc1OC(=O)c1ccco1` here?
The IC50 was 7.29 µM (active).

And the IC50 [16]?
The IC50 was 4.52 µM (active).

For `COc1ccccc1NN=C1C(=O)NC(=S)NC1=O`, which IC50 [15] is on record?
The IC50 was 18 µM (active).

What about the IC50 [16] of the same compound?
The IC50 was 23.3 µM (inactive).
